Patent publication US8637038B2, “Methods for inhibiting allograft rejection” (Rigel Pharmaceuticals, Inc., priority 2011, dated 2014)
Several values for one entry are separate records, joined by “and”; a condition that tells them apart may be missing. Equal values may be shown once. Read-outs that look alike come from different tables or passages of the source.

Assays:
Syk = assay: Anti-IgM Ramos phospho-Erk; format: cell-based; conditions: Homo sapiens, read-out: Anti-IgM Ramos phospho-Erk EC50
Protocol: The erythropoietin (EPO)-dependent survival of cultured human erythroid progenitor cells (CHEPs) was determined using CellTiter-Glo® Luminescent Cell Viability Assay (Promega). Human primary T cell activation was assessed by measuring IL-2 production by ELISA (R&D Systems, Minneapolis, Minn., USA) following plate-bound anti-CD3 and anti-CD28 stimulation (Anti-Human CD3; BD Biosciences; Anti-Human CD28; Immunotech; Prague, Czech Republic). The enzymatic activity of tryptase released by human cultured mast cells (CHMCs) upon stimulation with IgE was quantified by cleavage of the synthetic fluorescent peptide substrate Z-Ala-Lys-Arg-7-amino-4-methylcoumarin (MP Biomedicals, Solon, Ohio, USA) in tryptase buffer. B-cell receptor-dependent Erk phosphorylation was measured in Ramos cells by intracellular FACS (anti-pT202/pY204-ERK1/2-AlexaFluor488; BD Biosciences). Cell proliferation assays were performed using A549 epithelial cells and H1299 lung carcinoma cells using nuclear staining to measure cell numbers (4′6-diamidino-2-phenylindole, dihydrochloride (DAPI; Invitrogen, Darmstadt, Germany)).

[1] = test system: Lew recipients of heterotopic BN heart transplants; assay: Five-day heart allograft study: ELISPOT (IFN-γ, IL-4, IL-17) of recipient splenocytes; format: in vivo, rat; conditions: for IFN-γ spot frequency (ELISPOT) compared to no medication group: LD groups (Compound I 15 mg/kg BID, Compound III 5 mg/kg BID, Tac 1 mg/kg QD), five days; for suppression of IFN-γ response to donor-specific antigens compared to Tac LD treatment: LD groups
Protocol: (§1) Compound I and Compound III were provided by Rigel (South San Francisco, Calif.) and Tacrolimus was provided by Astellas (Munich, Germany). All drugs were administrated orally each in two different concentrations: Compound I LD (15 mg/kg BID; n=6) and HD (60 mg/kg BID; n=6); Compound III LD (5 mg/kg BID; n=6) and HD (20 mg/kg BID; n=6); Tac LD (1 mg/kg QD; n=6) and HD (4 mg/kg QD; n=6). Administration of all drugs was performed every day at the same time points. Tacrolimus was applied only once a day (QD) every 24 hours. During administration of Compound I (BID) and Compound III (BID) a 12 hour pause was kept in between each drug application.
Lew recipients of heterotopic BN heart transplants were randomly assigned to their group. Animals were either left untreated (groups 1 and 2; see Table 1,5-day study) or received their group specific medication (groups 3-8; see Table 1,5-day study) by oral application. An untreated syngeneic transplant group Lew-Lew was generated as control.
Lymphocytes were isolated from freshly harvested spleens. ELISPOT assays with 1×10^7/ml mitomycin-inhibited BN splenocytes and 1×10^6/ml Lew splenocytes were performed according to the manufacturer's protocol (BD Biosciences). 96-well plates were coated with IFN-γ, IL-17, and IL-4 to assess T helper cell (Th)1-, Th17-, and Th2-responses independently. All assays were performed in quadruplicates. Spots were automatically enumerated using an ELISPOT plate reader (CTL, Cincinnati, Ohio) for scanning and analyzing.

[2] = test system: BN-to-Lew heterotopic heart transplantations; assay: Graft survival study after 10-day treatment, with combination index; format: in vivo, rat; conditions: no medication 7±0 days
From the text: Male Brown Norway (BN) and Lewis (Lew) rats weighing 350 g were purchased from Harlan (Indianapolis, Ind.) and were housed under conventional conditions. All animals were fed standard rat chow and water ad libitum and received humane care in compliance with the Principles of Laboratory Animal Care formulated by the National Society for Medical Research and the Guide for the care and Use of Laboratory Animals published by the National Institutes of Health (National Institutes of Health publication No. 85-23, revised 1985). Allogeneic (BN-to-Lew) and syngeneic (Lew-to-Lew) heterotopic heart transplantations were performed as described previously (Ono et al., J. Thorac. Cardiovasc. Surg. 57:225-229, 1969). In brief, rats were anaesthetized using 2% isoflurane. The donor received an intravenous bolus of 500 I.U. heparin. Cardiac arrest was achieved using 20 ml Bretschneider solution (Custodiol, Dr. F. Koehler Chemie, Bensheim, Germany). […] Heart-beating score was assessed directly after transplantation for each animal from score 0 (no palpable contraction) to 4 (strong and regular contraction). Only animals with beating scores of 4 were included into the study.
as §1
BN-to-Lew heterotopic heart transplantations were performed. Recipient animals were treated for 10 days according to Table 1 (10 day survival study group) and graft survival was monitored by daily palpation of the beating donor heart through the abdominal wall. Scoring was assessed according to heart-beating score of 0 to 4. The time of rejection was defined as the last day of palpable cardiac contractions and graft rejection was confirmed by laparotomy.
The median-effect principle of Chou (in Synergism and Antagonism in Chemotherapy, Chou and Rideout, eds, pp. 61-102, Academic Press, 1991) is based on the premise that the effect of each agent is related to its dose and, therefore, can be calculated using the following equation: (fa/fu)=(D/Dm)m, where fa and fu represent the fractions of the system that are affected (% inhibition or rather days of survival beyond controls) and unaffected (1−fa), respectively, by the drug at dose D. Full protection (fa=1) is defined as at least a 28-day survival of allografts. Dm is the dose required for 50% inhibition (ED50), the median effect (m) is a coefficient that describes the sigmoidicy of the dose-effect curve. The interaction between two drugs is assessed by the combination index (CI) equation for the doses to achieve x % inhibition:
[formula] for the mutually nonexclusive case, where each drug has a different mode of action. A computer software program was used to determine the dose-effect parameters (Dm, m, and r), and the CI values (CalcuSyn, Biosoft, Cambridge, United Kingdom).
Graft survival was monitored by daily palpation of the beating donor heart through the abdominal wall and treatment of animals was stopped after 10 days.

[3] = HD (Compound I 60 mg/kg BID, Compound III 20 mg/kg BID, Tac 4 mg/kg QD) for 10 days
[4] = LD (Compound I 15 mg/kg BID, Compound III 5 mg/kg BID, Tac 1 mg/kg QD) for 10 days

Structure (SMILES)	EC50 (Syk; upstream kinase Syk)	IL-17 cytokine release (ELISPOT) compared to no medication group ([1]; HD 60 mg/kg BID, p<0.010)	IL-17 cytokine release (ELISPOT) compared to no medication group ([1]; LD 15 mg/kg BID, p<0.001)	IL-17 spot frequency compared to Tac LD ([1]; LD 15 mg/kg BID, p<0.001)	IFN-γ spot frequency (ELISPOT) compared to no medication group [1]	suppression of IFN-γ response to donor-specific antigens compared to Tac LD treatment ([1]; p<0.001)	graft survival, mean [2, 3]	graft survival, mean [2, 4]	EC50 (Syk)	IFN-γ spot frequency compared to Tac HD group ([1]; Compound III LD 5 mg/kg BID, p<0.05)
COc1cc(Nc2ncc(C)c(Nc3ccc4oc(=O)[nH]c4c3)n2)cc(C)c1F [Compound I, 5-(2-(4-fluoro-3-methoxy-5-methylphenylamino)-5-methylpyrimidin-4-ylamino)benzo[d]oxazol-2(3H)-one]	1440 ± 586 nM	significantly suppressed	significantly suppressed	significantly less spot frequency	significantly reduced	significantly better results	22 ± 5 days and 22 ± 6 days	15 ± 3 days		
COc1cc(Nc2ncc(C)c(Nc3ccc4oc(=O)[nH]c4c3)n2)cc(C)c1C [Compound III, 5-(2-(3-methoxy-4,5-dimethylphenylamino)-5-methylpyrimidin-4-ylamino)benzol[d]oxazol-2-(3H)-one]					significantly reduced	significantly better results	20 ± 4 days and 20 ± 2 days	13 ± 2 days	1280 ± 190 nM	less IFN-γ spot frequency
